Measured values taken from PubChem BioAssay (NCI).
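Assay format: 96-well plates, 48-hour exposure. GI50: concentration for 50% inhibition of growth. Definition used: TGI = concentration required for complete inhibition of growth.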

How the values were obtained:
Assay in all cases: inhibition of tumour cell growth, NCI panel, 48 h
[1] = system: OVCAR-5 ovarian
[2] = system: SNB-75 CNS
[3] = system: CAKI-1 renal
[4] = system: T-47D breast
[5] = system: UACC-257 melanoma
[6] = system: SW-620 colon
[7] = system: HT29 colon
[8] = system: SNB-19 CNS
[9] = system: SF-539 CNS
[10] = system: NCI-H522 lung
[11] = system: UO-31 renal
[12] = system: SF-268 CNS
[13] = system: LOX IMVI melanoma
[14] = system: CCRF-CEM leukemia
[15] = system: ACHN renal
[16] = system: NCI-H460 lung
[17] = system: HOP-92 NSCLC
[18] = system: HOP-62 NSCLC
[19] = system: A549 NSCLC
[20] = system: RPMI-8226 leukemia
[21] = system: NCI-H226 lung
[22] = system: U251 CNS
[23] = system: OVCAR-4 ovarian
[24] = system: OVCAR-3 ovarian
[25] = system: SK-OV-3 ovarian
[26] = system: BT-549 breast
[27] = system: COLO 205 colon
[28] = system: IGROV1 ovarian
[29] = system: HS 578T breast
[30] = system: SR leukemia
[31] = system: NCI/ADR-RES ovarian
[32] = system: RXF 393 renal
[33] = system: HCT-15 colon
[34] = system: UACC-62 melanoma
[35] = system: K-562 leukemia
[36] = system: HCT-116 colon
[37] = system: SN12C renal
[38] = system: M14 melanoma
[39] = system: MDA-MB-435
[40] = system: MALME-3M melanoma
[41] = system: MDA-MB-231 breast
[42] = system: DU-145 prostate
[43] = system: SF-295 CNS
[44] = system: A498 renal
[45] = system: OVCAR-8 ovarian
[46] = system: HL-60(TB) leukemia
[47] = system: 786-0 renal
[48] = system: TK-10 renal
[49] = system: MCF7 breast
[50] = system: HCC-2998 colon
[51] = system: KM12 colon
[52] = system: EKVX NSCLC
[53] = system: SK-MEL-2 melanoma
[54] = system: PC-3 prostate
[55] = system: SK-MEL-28 melanoma
[56] = system: MOLT-4 leukemia
[57] = system: SK-MEL-5 melanoma
[58] = system: NCI-H23 lung

`Clc1ccc(N2CCC(N3CCCC3)CC2)cc1-c1nc2ccccc2[nH]1` showed a GI50 [1] of 26.5 µM, a TGI [1] greater than 69.4 µM and a GI50 [2] of 15.5 µM. For the same molecule, the TGI [2] was 39 µM, the GI50 [3] was 19.3 µM and the TGI [3] was 50 µM. The GI50 [4] was 21.6 µM, the TGI [4] was 88.1 µM and the GI50 [5] was 17 µM. The TGI [5] was 32.9 µM, the GI50 [6] was 16.8 µM and the TGI [6] was 36 µM. The GI50 [7] was 15.1 µM, the TGI [7] was 35.8 µM and the GI50 [8] was 33.7 µM. The TGI [8] was greater than 100 µM, the GI50 [9] was 17 µM and the TGI [9] was 32.1 µM. It also gave a GI50 [10] of 19.1 µM, a TGI [10] of 38.7 µM and a GI50 [11] of 16.7 µM. The TGI [11] was 34 µM, the GI50 [12] was 15.4 µM and the TGI [12] was 31.8 µM. The GI50 [13] was 18.1 µM, the TGI [13] was 35.5 µM and the GI50 [14] was 25.9 µM. It also gave a TGI [14] of 79.4 µM, a GI50 [15] of 26.7 µM and a TGI [15] of 67.4 µM. For the same molecule, the GI50 [16] was 22.9 µM, the TGI [16] was 50.1 µM and the GI50 [17] was 13.4 µM. For the same molecule, the TGI [17] was 42.8 µM, the GI50 [18] was 19.8 µM and the TGI [18] was 40.1 µM. It also gave a GI50 [19] of 27.2 µM, a TGI [19] greater than 84.4 µM and a GI50 [20] of 20.9 µM. For the same molecule, the TGI [20] was 53.8 µM, the GI50 [21] was 18.4 µM and the TGI [21] was 43.8 µM. It also gave a GI50 [22] of 16.7 µM, a TGI [22] of 35.1 µM and a GI50 [23] of 27.1 µM. For the same molecule, the TGI [23] was greater than 91.4 µM, the GI50 [24] was 17.8 µM and the TGI [24] was 40.4 µM. It also gave a GI50 [25] of 24.5 µM, a TGI [25] greater than 67.9 µM and a GI50 [26] of 14.1 µM. For the same molecule, the TGI [26] was 31.2 µM, the GI50 [27] was 16 µM and the TGI [27] was 30.8 µM. The GI50 [28] was 33.8 µM, the TGI [28] was greater than 100 µM and the GI50 [29] was 16.8 µM. The TGI [29] was 51.7 µM, the GI50 [30] was 20.1 µM and the TGI [30] was 58.7 µM. The GI50 [31] was 29.4 µM, the TGI [31] was greater than 100 µM and the GI50 [32] was 12.9 µM. It also gave a TGI [32] of 26.8 µM, a GI50 [33] of 18.7 µM and a TGI [33] of 38.5 µM. The GI50 [34] was 16.2 µM, the TGI [34] was 32.1 µM and the GI50 [35] was 17 µM. It also gave a TGI [35] of 44.5 µM, a GI50 [36] of 13.1 µM and a TGI [36] of 27.5 µM. It also gave a GI50 [37] of 25 µM, a TGI [37] greater than 73.7 µM and a GI50 [38] of 16.7 µM. It also gave a TGI [38] of 31.8 µM, a GI50 [39] of 17.7 µM and a TGI [39] of 35.7 µM. For the same molecule, the GI50 [40] was 17.4 µM, the TGI [40] was 33.6 µM and the GI50 [41] was 17.1 µM. For the same molecule, the TGI [41] was 32.5 µM, the GI50 [42] was 36.7 µM and the TGI [42] was greater than 100 µM. For the same molecule, the GI50 [43] was 17.4 µM, the TGI [43] was 36.2 µM and the GI50 [44] was 12.8 µM. It also gave a TGI [44] of 27.8 µM, a GI50 [45] of 22.5 µM and a TGI [45] of 60.6 µM. For the same molecule, the GI50 [46] was 23.5 µM, the TGI [46] was 50.1 µM and the GI50 [47] was 14.7 µM. It also gave a TGI [47] of 28.7 µM, a GI50 [48] of 20.7 µM and a TGI [48] of 42.2 µM. The GI50 [49] was 15.8 µM, the TGI [49] was 30.7 µM and the GI50 [50] was 18.6 µM. The TGI [50] was 37.4 µM, the GI50 [51] was 22.6 µM and the TGI [51] was 55.2 µM. The GI50 [52] was 37.9 µM, the TGI [52] was greater than 100 µM and the GI50 [53] was 19.3 µM. For the same molecule, the TGI [53] was 36.6 µM, the GI50 [54] was 30.9 µM and the TGI [54] was greater than 100 µM. For the same molecule, the GI50 [55] was 16.5 µM, the TGI [55] was 31.2 µM and the GI50 [56] was 23.2 µM. For the same molecule, the TGI [56] was 67.7 µM, the GI50 [57] was 6.59 µM and the TGI [57] was 17.1 µM. The GI50 [58] was 25.7 µM and the TGI [58] was greater than 71.3 µM.
